Each structure is given as a SMILES string.

The source of these data is paper PMC4559029 (Cancer Medicine, 2015).

One data set has as its system hERG-related current. The conditions noted are these: at 10 μg/mL; ref data on file, Celgene Corporation; cited from earlier work.
The nature of another data set: clinical. The conditions noted are these: human, plasma, intravenous.
Another data set deals with patients. Particulars: early clinical development, across several studies; cited from earlier work.
Data set [1] concerns patients with advanced malignancy. The data set is described as follows: centrally read ECG analysis (QTcF, PR, QRS, heart rate) in patients with advanced malignancy. Here is the method: All patients provided written informed consent.
PK/PD modeling is not reported as it was not possible to account for the possible effects of coadministered antiemetics and the absence of closely collected ECGs during times of PK sampling when rapid changes in the plasma concentrations occurred. For the central tendency and categorical analyses, the mean of the three replicates was used. All paper ECGs were analyzed by a core central ECG laboratory (Duke Clinical Research Institute [DCRI], Durham, NC) in a fully blinded fashion. A DCRI technician marked the fiducial points on each ECG tracing and, using a digital caliper, measured the QT, PR, RR, and QRS intervals. All ECGs were over read by a DCRI cardiologist for verification of the interval measurements.

Details of data set [2]: method as in earlier work. Particulars: ondansetron 32 mg IV; cited from earlier work.
Data set [3] can be described thus: published QT results for ondansetron. The format is in vivo. Particulars: 24 mg ondansetron, inferred by authors from published 32 mg data.
Procedure: The majority of patients (18/26) received ondansetron 24 mg IV.

In the case of `C/C=C1\NC(=O)[C@H]2CSSCC/C=C/[C@H](CC(=O)N[C@H](C(C)C)C(=O)N2)OC(=O)[C@H](C(C)C)NC1=O` [romidepsin], in the data set on hERG-related current, the “inhibition of hERG-related current” value is reported as 37%. In “clinical” (8 mg/m^2), this molecule showed an AUC(0-inf) of 1350 ng·h/mL, a Cmax of 1110 ng/mL and a half-life of 4.82 h. In “clinical” (10 mg/m^2), this molecule showed a Cmax of 1480 ng/mL and a half-life of 4.94 h. Moreover, in the data set “clinical” (12 mg/m^2), the AUC(0-inf) worked out at 3010 ng·h/mL, the Cmax came to 2090 ng/mL and the half-life was 4.32 h. Also, in “clinical” (14 mg/m^2), the AUC(0-inf) is 3070 ng·h/mL, the concentration peaked (Cmax) at 780 ng/mL and the half-life was 3.7 h. Further, the “patients with sudden death” value in the data set on patients was “six”. For the same molecule, the “upper 90% CI of maximal mean QTcF increase from preantiemetic baseline” value in data set [1] (14 mg/m^2 4-h infusion, at 0.25 h postinitiation) was 14.5 ms. For the same molecule, in data set [1] (human, in vivo), the “increase in heart rate” value is reported as “≈ 20 bpm” and the “patients with absolute QTcF value >450 msec” value is “No patient”.
On to `Cc1nccn1CC1CCc2c(c3ccccc3n2C)C1=O` (stereo not shown) [ondansetron], for which, in data set [2], the “increase in QTc at 4 h” value is on record as “≈ 6 msec” and the “initial increase in QTc” value is “≈ 20 msec”. Moreover, the “QTc effect at 4 h” value in data set [3] is under 5 ms.
